From patent US20200392116A1, “SUBSTITUTED HETEROCYCLES AS c-MYC TARGETING AGENTS” (NORTHWESTERN UNIVERSITY, priority 2019, published 2020)

Test: Potency code of Table 2 (assay not stated)

Row | Compound | Potency code
1 | O=C(COCCOCCOCCn1cc(COc2cccc3c2C(=O)N(C2CCC(=O)NC2=O)C3=O)nn1)NCCOc1ccc(-c2cc(C(F)(F)F)n[nH]2)c(O)c1-c1cncc(C(F)(F)F)c1 (centres unmarked) [NUCC-0201704] | + (>40 +)
2 | CN/N=C(\C)c1cccc(-c2c(OCc3ccc(Cl)cc3)ccc(-c3cc(C(F)(F)F)nn3C)c2O)c1 [NUCC-0198404] | + (>40 +)
3 | CCc1ccc(Oc2c(-c3ccc(Oc4ccc(Cl)cc4)cc3O)n[nH]c2C(F)(F)F)cc1 [NUCC-0200681] | ++++ (<10 ++++)
4 | Cn1nc(C(F)(F)F)cc1-c1ccc(OCc2ccc(Cl)cc2)c(Br)c1O [NUCC-0198407] | +++ (10-30 +++)
5 | CCCc1c(OCc2ccc(Cl)cc2)ccc(-c2cc(C(F)(F)F)n[nH]2)c1O [NUCC-0200740] | + (>40 +)
6 | Oc1cc(OCc2ccc(Cl)cc2)ccc1-c1n[nH]cc1-c1ccoc1 [NUCC-0198322] | ++ (30-40 ++)
7 | O=C(O)c1cc(-c2ccc(OCc3ccc(Cl)cc3)c(-c3cc(C(F)(F)F)cc(C(F)(F)F)c3)c2O)n[nH]1 [NUCC-0200973] | ++++ (<10 ++++)
8 | Oc1cc(OCc2ccc(Cl)cc2)ccc1-c1n[nH]cc1Oc1ccccc1 [NUCC-0176247] | + (>40 +)
9 | CCCCCCOc1ccc(-c2cc(C(F)(F)F)n[nH]2)c(O)c1-c1cncc(C#N)c1 [NUCC-0201194] | + (>40 +)
10 | CCc1[nH]nc(-c2ccc(OCc3ccc(Cl)cc3)cc2O)c1-c1ccccc1 [NUCC-0198301] | + (>40 +)
11 | Cn1nc(-c2ccc(OCc3ccc(F)cc3)c(-c3cc(C(F)(F)F)cc(C(F)(F)F)c3)c2O)cc1C(F)(F)F [NUCC-0201035] | + (>40 +)
12 | CS(=O)(=O)c1cccc(-c2c(OCc3ccc(Cl)cc3)ccc(-c3cc(C(F)(F)F)n[nH]3)c2O)c1 [NUCC-0201036] | ++ (30-40 ++)
13 | Cc1ccc(C)c(Oc2c[nH]nc2-c2ccc(OCc3ccc4ccccc4c3)cc2O)c1 [NUCC-0196290] | + (>40 +)
14 | CCc1ccc(Oc2c(-c3ccc(OCc4ccc(OC)cc4)cc3O)n[nH]c2C(F)(F)F)cc1 [NUCC-0196359] | + (>40 +)
15 | Cn1nc(-c2ccc(OCc3ccc(Cl)cc3)cc2O)c(Oc2ccccc2Cl)c1C(F)(F)F [NUCC-0196304] | +++ (10-30 +++)
16 | CCCCOc1ccc(-c2cc(C(F)(F)F)n(C)n2)c(O)c1-c1cncc(C#N)c1 [NUCC-0201639] | + (>40 +)
17 | CCCCOc1ccc(-c2cc(C(F)(F)F)n[nH]2)c(O)c1-c1cc(C(F)(F)F)cc(C(F)(F)F)c1 [NUCC-0201031] | + (>40 +)
18 | COc1cccc(-c2c(-c3ccc(OCc4ccc(Cl)cc4)cc3O)n[nH]c2C)c1 [NUCC-0198312] | + (>40 +)
19 | Oc1cc(Nc2ccc3c(c2)OCO3)ccc1-c1cc(C(F)(F)F)[nH]n1 [NUCC-0200561] | + (>40 +)
20 | Oc1cc(OCc2ccncc2)ccc1-c1n[nH]cc1Oc1ccccc1 [NUCC-0176251] | + (>40 +)
21 | Cn1nc(-c2ccc(OCc3ccc(Cl)cc3)c(-c3ccc(Cl)c(C(F)(F)F)c3)c2O)cc1C(F)(F)F [NUCC-0200733] | + (>40 +)
22 | Cn1nc(-c2ccc(OCc3ccc(Cl)cc3)c(-c3cccc(C#N)c3)c2O)cc1C(N)=O [NUCC-0200558] | ++++ (<10 ++++)
23 | Cn1cc(-c2ccc(F)cc2)c(-c2ccc(OCc3ccc(Cl)cc3)cc2O)n1 [NUCC-0196349] | + (>40 +)
24 | C#CCC(N=[N+]=[N-])C(=O)NCCOc1ccc(-c2cc(C(F)(F)F)n[nH]2)c(O)c1-c1cncc(C(F)(F)F)c1 (centres unmarked) [NUCC-0201697] | + (>40 +)

Row | Compound | Potency code
25 | COc1ccc(-c2c(-c3ccc(O)cc3O)n[nH]c2C(F)(F)F)cc1OC [NUCC-0200496] | + (>40 +)
26 | CCc1ccc(Oc2c(-c3ccc(OCc4ccc(Cl)cc4)cc3O)n[nH]c2CC)cc1 [NUCC-0196282] | + (>40 +)
27 | CCCCOc1ccc(-c2cc(C(F)(F)F)nn2C)c(O)c1-c1cc(C(F)(F)F)cc(C(F)(F)F)c1 [NUCC-0201651] | + (>40 +)
28 | CC(C)(C)OC(=O)NCCOc1ccc(-c2cc(C(F)(F)F)n[nH]2)c(O)c1-c1cncc(C(F)(F)F)c1 [NUCC-0201644] | + (>40 +)
29 | Cc1ccc(C)c(Oc2c[nH]nc2-c2ccc(OCc3cccc(Cl)c3)cc2O)c1 [NUCC-0196286] | + (>40 +)
30 | COc1ccccc1-c1c[nH]nc1-c1ccc(OCc2ccc(Cl)cc2)cc1O [NUCC-0198357] | + (>40 +)
31 | Cn1cc(-c2ccc(OCc3ccc(Cl)cc3)cc2N)c(C(F)(F)F)n1 [NUCC-0200746] | + (>40 +)
32 | Oc1ccccc1C1=NNC(c2ccccc2)C1 (centres unmarked) [NUCC-0200685] | + (>40 +)
33 | Cn1nc(C(F)(F)F)cc1-c1ccc(OCc2ccc(Cl)cc2)c(-c2cccnc2)c1O [NUCC-0196365] | + (>40 +)
34 | Oc1ccccc1-c1cc(C(F)(F)F)n[nH]1 [NUCC-0200574] | + (>40 +)
35 | Cn1nc(-c2ccc(OCCCN)c(-c3ccc(Cl)c(C(F)(F)F)c3)c2O)cc1C(F)(F)F [NUCC-0201643] | + (>40 +)
36 | Cn1nc(C(F)(F)F)cc1-c1ccc(N)cn1 [NUCC-0200688] | + (>40 +)
37 | Cn1nc(C(F)(F)F)cc1-c1ccc(OCc2ccc([N+](=O)[O-])cc2)c(-c2cncc(C(F)(F)F)c2)c1O [NUCC-0201653] | +++ (10-30 +++)
38 | Cn1nc(-c2ccc(Nc3ccc(NC=O)cc3)cc2O)cc1C(F)(F)F [NUCC-0200564] | + (>40 +)
39 | COc1ccc(COc2ccc(-c3cc(C(F)(F)F)nn3C)c(O)c2-c2cc(C(F)(F)F)cc(C(F)(F)F)c2)cc1 [NUCC-0201042] | + (>40 +)
40 | Oc1cc(Nc2ccc(Cl)c(Cl)c2)ccc1-c1cc(C(F)(F)F)[nH]n1 [NUCC-0200721] | ++++ (<10 ++++)
41 | Oc1ccc(OCc2ccc(Cl)cc2)cc1-c1[nH]nc(C(F)(F)F)c1-c1ccccc1Cl [NUCC-0200576] | ++++ (<10 ++++)
42 | Cn1nc(C(F)(F)F)cc1-c1ccc(OCc2ccc([N+](=O)[O-])cc2)c(-c2cc(C(F)(F)F)cc(C(F)(F)F)c2)c1O [NUCC-0201648] | + (>40 +)
43 | Cn1nc(-c2ccc(OCc3ccc(Cl)cc3)cc2O)cc1C(F)(F)F [NUCC-0196314.2] | + (>40 +)
44 | Oc1c(-c2cc(C(F)(F)F)[nH]n2)ccc(OCc2ccc(Cl)cc2)c1-c1ccoc1 [NUCC-0198325] | + (>40 +)
45 | Cn1nc(-c2ccc(OCc3ccc(Cl)cc3)c(-c3cc(C(F)(F)F)cc(C(F)(F)F)c3)c2O)cc1C(=O)O [NUCC-0200971] | ++++ (<10 ++++)
46 | Cc1c(-c2ccccc2)c(-c2ccc(OCc3ccc(Cl)cc3)cc2O)nn1C [NUCC-0198300] | + (>40 +)
47 | Cc1ccc(C)c(Oc2c[nH]nc2-c2ccc(OCc3ccc(Cl)cc3)cc2O)c1 [NUCC-0196284] | + (>40 +)
48 | Cn1nc(-c2ccc(OCCCNC(=O)OC(C)(C)C)c(-c3cncc(C(F)(F)F)c3)c2O)cc1C(F)(F)F [NUCC-0201656] | + (>40 +)

Row | Compound | Potency code
49 | Oc1c(-c2cc(C(F)(F)F)[nH]n2)ccc(OCc2ccc(Cl)cc2)c1-c1ccc(F)c(C(F)(F)F)c1 [NUCC-0200734] | + (>40 +)
50 | Cc1[nH]nc(-c2ccc(OCc3cnn(C)c3)cc2O)c1Oc1ccccc1 [NUCC-0176249] | + (>40 +)
51 | Cc1[nH]nc(-c2ccc(OCc3ccc(Cl)cc3)cc2O)c1-c1ccccc1 [NUCC-0198298] | + (>40 +)
52 | Oc1cc(NCc2ccc(Cl)cc2)ccc1-c1cc(C(F)(F)F)[nH]n1 [NUCC-0200493] | + (>40 +)
53 | Oc1cc(Oc2ccc(Cl)cc2)ccc1-c1cc(C(F)(F)F)[nH]n1 [NUCC-0200679] | ++ (30-40 ++)
54 | Cn1nc(C(F)(F)F)cc1-c1ccc(OCc2ccc(Cl)cc2)c(-c2ccc(Cl)c(C(F)(F)F)c2)c1O [NUCC-0200975] | + (>40 +)
55 | Oc1cc(OCc2ccc(Cl)cc2)ccc1-c1n[nH]cc1-c1cccc(Cl)c1 [NUCC-0196350] | +++ (10-30 +++)
56 | CCOC(=O)c1cc(-c2ccc(OCc3ccc(Cl)cc3)c(-c3ccc(C#N)cc3)c2O)n[nH]1 [NUCC-0200489] | + (>40 +)
57 | CCc1ccc(Oc2c(-c3ccc(O)cc3O)n[nH]c2C(F)(F)F)cc1 [NUCC-0198406] | ++++ (<10 ++++)
58 | CC(C)COc1ccc(-c2cc(C(F)(F)F)n[nH]2)c(O)c1-c1cc(C(C)(F)F)cc(C(F)(F)F)c1 [NUCC-0201030] | + (>40 +)
59 | Oc1c(-c2cc(C(F)(F)F)n[nH]2)ccc(OCc2ccc(Cl)cc2)c1-c1cncc(C(F)(F)F)c1 [NUCC-0201037] | +++ (10-30 +++)
60 | CCc1ccc(Oc2c(-c3ccc(OCc4ccc(Cl)cc4)cc3)nn(C)c2C(F)(F)F)cc1 [NUCC-0196353] | + (>40 +)
61 | Cn1nc(C(F)(F)F)cc1-c1ccc(OCc2ccc(Cl)cc2)cc1Cl [NUCC-0200744] | + (>40 +)
62 | CC(C)CCOc1ccc(-c2cc(C(F)(F)F)n[nH]2)c(O)c1-c1cncc(C#N)c1 [NUCC-0201195] | ++++ (<10 ++++)
63 | CCc1ccc(Oc2c[nH]nc2-c2ccc(OCCc3ccc(Cl)cc3)cc2O)cc1 [NUCC-0176261] | + (>40 +)
64 | Oc1cc(OCc2ccc(Cl)cc2)ccc1-c1n[nH]cc1Oc1ccccc1Cl [NUCC-0196343] | + (>40 +)
65 | CCc1ccc(Oc2c(-c3ccc(OCc4ccc(Cl)c(Cl)c4)cc3O)n[nH]c2C(F)(F)F)cc1 [NUCC-0196355] | +++ (10-30 +++)
66 | COc1ccc(-c2c(-c3ccc(OCc4ccc(Cl)cc4)cc3O)nn(C)c2C(F)(F)F)cc1 [NUCC-0196340] | ++ (30-40 ++)
67 | Nc1ccc(COc2ccc(-c3cc(C(F)(F)F)n[nH]3)c(O)c2-c2cncc(C(F)(F)F)c2)cc1 [NUCC-0201661] | + (>40 +)
68 | Cn1cc(-c2cccc(Cl)c2)c(-c2ccc(OCc3ccc(Cl)cc3)cc2O)n1 [NUCC-0196351] | + (>40 +)
69 | COc1ccccc1-c1cn(C)nc1-c1ccc(OCc2ccc(Cl)cc2)cc1O [NUCC-0198358] | + (>40 +)
70 | CCc1ccc(Oc2c(-c3ccc(OCc4cccc(OC)c4)cc3O)n[nH]c2C(F)(F)F)cc1 [NUCC-0196297] | + (>40 +)
71 | CCc1ccc(Oc2c(-c3ccc(O)cc3O)nn(C)c2C(F)(F)F)cc1 [NUCC-0198411] | +++ (10-30 +++)
